Results taken from PMC4710668, “Bioactivation of food genotoxicants 5-hydroxymethylfurfural and furfuryl alcohol by sulfotransferases from human, mouse and rat: a comparative study” (Archives of Toxicology, 2014).

How the values were obtained:
Assay in all cases: HMF sulfoconjugation assay
Assay type in all cases: biochemical
[1] = target: T1, rSult1a1 (Rattus norvegicus, UniProt P17988)
T1 construct: made in house; host or cells: Salmonella typhimurium TA1538 (cytosolic fraction, enzyme not purified)
T1 sequence (P17988 whole entry): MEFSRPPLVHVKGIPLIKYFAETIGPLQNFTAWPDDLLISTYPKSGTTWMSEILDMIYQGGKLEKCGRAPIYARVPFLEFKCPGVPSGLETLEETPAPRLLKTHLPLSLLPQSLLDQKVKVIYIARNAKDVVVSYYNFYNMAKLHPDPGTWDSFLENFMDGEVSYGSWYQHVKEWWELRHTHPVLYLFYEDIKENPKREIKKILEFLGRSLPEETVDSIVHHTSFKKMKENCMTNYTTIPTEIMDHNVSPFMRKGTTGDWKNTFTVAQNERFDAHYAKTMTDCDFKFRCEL
Outline: (§1)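 Read-out: SMF by negative-ion UPLC-MS/MS (m/z 204.9 → 96.0 and → 81.0), external calibration. Reactions used bacterial cytosol with one expressed SULT, HMF at several concentrations, 50 µM PAPS, 37 °C, 30 min, under linear protein and time conditions.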

[2] = target: T2, mSult2b1b (Mus musculus, UniProt O35400)
T2 construct: made in house; host or cells: Salmonella typhimurium TA1538 (cytosolic fraction, enzyme not purified)
T2 sequence (O35400 1-338): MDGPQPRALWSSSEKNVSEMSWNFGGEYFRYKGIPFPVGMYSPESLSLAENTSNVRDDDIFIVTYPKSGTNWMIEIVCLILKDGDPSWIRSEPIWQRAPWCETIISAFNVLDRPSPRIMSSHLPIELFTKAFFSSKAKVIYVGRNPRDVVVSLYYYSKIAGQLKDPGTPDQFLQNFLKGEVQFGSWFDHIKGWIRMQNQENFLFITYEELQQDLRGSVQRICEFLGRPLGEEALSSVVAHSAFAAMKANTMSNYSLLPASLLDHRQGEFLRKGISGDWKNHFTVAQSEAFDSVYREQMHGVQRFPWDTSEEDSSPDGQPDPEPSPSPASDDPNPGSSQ
Outline: as §1

[3] = target: T3, hSULT1C2 (Homo sapiens, UniProt O75897)
T3 construct: made in house; host or cells: Salmonella typhimurium TA1538 (cytosolic fraction, not purified)
T3 sequence (O75897 whole entry): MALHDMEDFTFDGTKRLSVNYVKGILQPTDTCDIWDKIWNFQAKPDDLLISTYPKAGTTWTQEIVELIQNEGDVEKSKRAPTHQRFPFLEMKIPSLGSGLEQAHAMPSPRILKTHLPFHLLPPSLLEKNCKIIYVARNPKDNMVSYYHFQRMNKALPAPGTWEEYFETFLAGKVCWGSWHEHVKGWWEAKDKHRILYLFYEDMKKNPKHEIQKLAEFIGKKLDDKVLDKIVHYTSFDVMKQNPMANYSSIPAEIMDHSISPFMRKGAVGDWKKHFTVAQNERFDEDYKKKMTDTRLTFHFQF
Outline: as §1

[4] = target: T4, mSult2a1 (Mus musculus, UniProt P52843)
T4 construct: made in house; host or cells: Salmonella typhimurium TA1538 (cytosolic fraction, enzyme not purified)
T4 sequence (P52843 1-285): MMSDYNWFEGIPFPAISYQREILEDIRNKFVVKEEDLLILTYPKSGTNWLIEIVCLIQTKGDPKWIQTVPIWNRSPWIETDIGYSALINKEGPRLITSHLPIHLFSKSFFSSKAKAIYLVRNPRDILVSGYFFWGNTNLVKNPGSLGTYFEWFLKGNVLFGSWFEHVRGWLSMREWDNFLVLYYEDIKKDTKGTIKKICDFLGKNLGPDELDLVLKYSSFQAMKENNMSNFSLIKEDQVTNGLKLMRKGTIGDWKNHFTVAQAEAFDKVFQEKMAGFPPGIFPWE
Outline: as §1

[5] = target: T5, rSult1c1 (Rattus norvegicus, UniProt P50237)
T5 construct: made in house; host or cells: Salmonella typhimurium TA1538 (cytosolic fraction, enzyme not purified)
T5 sequence (P50237 whole entry): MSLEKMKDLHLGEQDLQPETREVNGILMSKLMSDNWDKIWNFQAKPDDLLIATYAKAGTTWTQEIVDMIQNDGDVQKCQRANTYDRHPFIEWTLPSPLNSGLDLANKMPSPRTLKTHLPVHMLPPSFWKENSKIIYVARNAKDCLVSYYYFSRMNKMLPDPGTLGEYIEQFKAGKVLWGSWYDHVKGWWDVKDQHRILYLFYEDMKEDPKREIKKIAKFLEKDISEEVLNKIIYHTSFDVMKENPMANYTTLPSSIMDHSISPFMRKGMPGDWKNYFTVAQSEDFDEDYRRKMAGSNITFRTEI
Outline: as §1

[6] = HMF sulfoconjugation, Michaelis-Menten fit

In the case of `O=Cc1ccc(CO)o1` [HMF, 5-Hydroxymethylfurfural], the Rate of sulfoconjugation ([1]; 0.1 mM HMF) is reported as <0.5 pmol/mg/min, the Rate of sulfoconjugation ([1]; 1 mM HMF) is reported as 6.5 ± 2.1 pmol/mg/min and the Rate of sulfoconjugation ([1]; 10 mM HMF) is reported as 43.6 ± 13.7 pmol/mg/min. For the same molecule, the Rate of sulfoconjugation ([1]; 100 mM HMF) was 36.1 ± 16.8 pmol/mg/min, the “K M” value [1, 6] was 4.9 ± 0.7 mM and the Rate of sulfoconjugation ([2]; 0.1 mM HMF) was <0.5 pmol/mg/min. For the same molecule, the Rate of sulfoconjugation ([2]; 1 mM HMF) was <0.5 pmol/mg/min, the Rate of sulfoconjugation ([2]; 10 mM HMF) was <0.5 pmol/mg/min and the Rate of sulfoconjugation ([2]; 100 mM HMF) was <0.5 pmol/mg/min. For the same molecule, the Rate of sulfoconjugation ([3]; 0.1 mM HMF) was 1.1 ± 0.3 pmol/mg/min, the Rate of sulfoconjugation ([3]; 1 mM HMF) was 14.0 ± 1.8 pmol/mg/min and the Rate of sulfoconjugation ([3]; 10 mM HMF) was 115 ± 14 pmol/mg/min. The Rate of sulfoconjugation ([3]; 100 mM HMF) was 285 ± 71 pmol/mg/min, the “K M” value [3, 6] was 18.8 ± 5.4 mM and the Rate of sulfoconjugation ([4]; 0.1 mM HMF) was <0.5 pmol/mg/min. It also gave a Rate of sulfoconjugation ([4]; 1 mM HMF) of 1.3 ± 0.2 pmol/mg/min, a Rate of sulfoconjugation ([4]; 10 mM HMF) of 9.0 ± 0.9 pmol/mg/min and a Rate of sulfoconjugation ([4]; 100 mM HMF) of 13.1 ± 1.7 pmol/mg/min. The Rate of sulfoconjugation ([5]; 0.1 mM HMF) was 2.1 ± 1.3 pmol/mg/min, the Rate of sulfoconjugation ([5]; 1 mM HMF) was 29.1 ± 9.0 pmol/mg/min and the Rate of sulfoconjugation ([5]; 10 mM HMF) was 120 ± 39 pmol/mg/min. For the same molecule, the Rate of sulfoconjugation ([5]; 100 mM HMF) was 47.5 ± 27.3 pmol/mg/min and the “K M” value ([5]; HMF sulfoconjugation, extended Michaelis-Menten equation with substrate inhibition) was 18.4 ± 4.7 mM.
